Measured values reported in patent US20220228054A1, “FLUORESCENT NAPHTHALIMIDE POLYMERS AND SOLUTIONS THEREOF FOR SCALE CONTROL IN AQUEOUS SYSTEMS” (NOURYON CHEMICALS INTERNATIONAL B.V., priority 2019, published 2022).

What was measured:
Assay type in all cases: physicochemical
[1] = Solubility in acrylic acid; conditions: 1.39 g in 10.5 g of acrylic acid
Experimental: The solubility of the monomer reaction product of Monomer Example 2 in acrylic acid was measured in the following manner. 10 g of acrylic acid was taken and the dried monomer reaction product of Monomer Example 2 was added in 0.2 g aliquots. The Monomer Example 2 reaction product started to become insoluble after 1.39 g was added. Next, 0.5 g of acrylic acid was added to form a clear solution. The final solution had 1.39 g of reaction product of Example 2 in 10.5 g of acrylic acid. The weight of reaction product of Example 2 was 11.7% of the total solution weight.

[2] = LC/FLD and GC/MS fluorescence of monomer species; conditions: for excitation maximum: at the emission maximum; for emission maximum: zero order excitation
Experimental: The sample of this example was initially analyzed by LC/MS to identify the retention times of target peaks. The same sample was then analyzed using similar, but weaker LC conditions by LC/FLD. The first step was to collect emission spectra with zero order excitation, this allows determining the emission maximum, which was 410 nm for the N-allyl-4-propoxy-1,8-naphthalimide and 450 nm for the N-allyl-4,5-dipropoxy-1,8-naphthalimide species.
The next step was to collect excitation spectra at the emission maximum for each compound. This allows determining the individual excitation maximum, which was 375 nm and 395 nm for the N-allyl-4-propoxy-1,8-naphthalimide and the N-allyl-4,5-dipropoxy-1,8-naphthalimide species respectively. The final step is to collect a chromatogram at the individual excitation and emission maxima. The latter two steps are each done with time programming the wavelengths, so each only require a single chromatogram.
Then the sample was analyzed by GC/MS to estimate the actual concentrations of the two components of interest. The ratio of the area percent by fluorescence and mass spec is the estimated relative fluorescence intensity. […] This assumes that the GC/MS area percent is the actual weight percent, which should be a close approximation.

Solubility in water = assay: Solubility in water
Experimental: The procedure of Example 4 in RU2640339 was repeated. An initial charge of 84 g of deionized water and 1 g of ammonium persulfate was placed in a 250 ml glass reactor with inlet ports for an agitator, water cooled condenser, thermocouple. 15 g of acrylic acid (0.208 moles, 99.73 mole percent of polymer) was weighed into a beaker and then 0.15 g of N-allyl-4-methoxy-1,8-naphthalimide (Monomer Example 2, formula weight 267, 0.00056 moles, […] of polymer) was added to the beaker and mixed until the powdered fluorescent monomer dissolved. This solution was then added to the reactor, with stirring. The reaction mixture was very cloudy, indicating insolubility of the N-allyl-4-methoxy-1,8-naphthalimide in the reaction mixture. The reactor contents were slowly heated to 85° C. When the temperature reached about 80° C., a strong exotherm was observed. The reaction mixture started to thicken and within minutes, a sticky, intractable mass was formed and started to rise up the stir shaft. An attempt was made to remove some of the reaction product from the reactor and try and dissolve it in water.

| excitation maximum [2] [nm] | emission maximum [2] [nm] | Structure (SMILES) | also measured |
| --- | --- | --- | --- |
| – | – | C=CCN1C(=O)c2cccc3c(OC)ccc(c23)C1=O [Monomer Example 2, N-allyl-4-methoxy-1,8-naphthalimide] | solubility in acrylic acid (weight of reaction product in clear solution) [1]: 11.7 % of the total solution weight |
| 375 | 410 | C=CCN1C(=O)c2cccc3c(OCCC)ccc(c23)C1=O [Monomer Example 3, N-allyl-4-propoxy-1,8-naphthalimide] | – |
| – | – | C=CCOc1ccc2c3c(cccc13)C(=O)N(CCC)C2=O [Monomer Example 4, N-propyl-4-allyloxy-1,8-naphthalimide] | solubility in water (in words) (Solubility in water): insolubility |
| – | – | C=CCN1C(=O)c2cccc3c(OCCOCCOCCOC)ccc(c23)C1=O [Monomer Example 5, N-allyl-4-(methoxy, triethylene glycol) 1,8-naphthalimide] | solubility in water (Solubility in water; 25° C., pH 7): less than 0.1 grams per 100 mis of water |
| 395 | 450 | C=CCN1C(=O)c2ccc(OCCC)c3c(OCCC)ccc(c23)C1=O [N-allyl-4,5-dipropoxy-1,8-naphthalimide] | – |
